{"source": "patent US20110009628A1", "about": "“Compounds and Compositions for Modulating Lipid Levels and Methods of Preparing Same” (priority 2009, published 2011)", "key": {"[1]": {"tested_on": "LDLR mRNA expression in HepG2 cells", "assay": "LDLR mRNA expression in HepG2 cells, Compounds 162 and 163, real-time RT-PCR (Example 13)", "assay_type": "cell-based, human", "details": "FIGS. 6A and 6B", "procedure": "In FIG. 6A HepG2 cells were exposed to Compounds 162 and 163 at the indicated concentrations (x-axis) for 24 h and plotted against normalized LDLR mRNA levels (fold of control in absence of compound). In FIG. 6B, HepG2 cells were treated with 20 μM of each compound for the indicted times (x-axis) and plotted against normalized LDLR mRNA levels (fold of control at 24 h).\nThe time- and dose-dependent effects of the enantiomers of Compound 127 (Compounds 162 and 163) on LDLR mRNA expression were examined using quantitative real-time RT-PCR assays (FIGS. 6A and 6B). HepG2 cells were treated with Compound 162 and Compound 163 at indicated concentrations for various times. Total RNA was isolated and […] was used to generate cDNA in a reaction containing random primers and M-MLV at 37° C. for 1 h in a volume of 25 μL. Real-time PCR was performed on the cDNA using MCEP REALPLEX 2 SYSTEM (Eppendorf) and Universal MasterMix (Applied Biosystems). Human LDLR and GAPDH Pre-Developed TaqMan Assay Reagents (Applied Biosystems) were used to assess the levels of mRNA expressions in HepG2. The levels of LDLR mRNA were normalized to that of GAPDH. Each RNA samples was assayed in triplicate. The fold activity was calculated by dividing mRNA abundance in compound treated cells with that of control."}, "[2]": {"tested_on": "LDLR protein expression in HepG2 cells", "assay": "Western blot of LDLR protein in HepG2 cells, Compounds 162 and 163", "assay_type": "cell-based, human", "details": "20 μM, 16 or 24 hours, FIG. 7", "procedure": "(§1) FIG. 7 is a Western blot analysis of LDLR and PCSK9 expression in HepG2 cells. HepG2 cells seeded in 12-well culture plates were cultured in 0.5% FBS MEM overnight. Compounds 162 and 163 at 20 μM were added to cells for the indicated times. Untreated and treated cells were harvested at the same indicated time points. Total cell lysates were isolated and 50 μg per sample was analyzed for LDLR and PCSK9 protein abundance by western blotting. The membrane was reprobed with anti-actin antibody to examine the equal loading of cell lysates.\nChicken anti-LDLR was purchased from Abcam. HepG2 cells cultured in 60-mm dishes were incubated overnight in medium containing 0.5% fetal bovine serum prior to the addition of compounds at 20 μM concentration. After 16 or 24 hours of treatment, total cell lysate was isolated and 50 μg of protein was separated on SDS-PAGE and transferred to nitrocellulose membrane for immunoblotting with anti-LDLR."}, "[3]": {"tested_on": "PCSK9 protein expression in HepG2 cells", "assay": "Western blot of PCSK9 protein in HepG2 cells, Compounds 162 and 163", "assay_type": "cell-based, human", "details": "20 μM, time-dependent, FIG. 7", "procedure": "as §1\nRecent studies have identified the liver secreted serine protease PCSK9 (proprotein convertase subtilisin type 9) as a natural inhibitor of LDLR protein expression that degrades hepatic LDLR protein, thus increasing circulating LDL-C levels."}, "Hyperlipidemic Hamsters": {"tested_on": "Hyperlipidemic Hamsters", "assay": "Serum lipids and biochemistry in hyperlipidemic hamsters on high fat high cholesterol diet, 2 weeks oral Compound 162", "assay_type": "in vivo, Golden Syrian Hamsters", "details": "for ALT / AST / BUN / Bil-T / Creatinine / Glucose / HDL-C / TC / TG: serum, HFHC feeding, n = 10", "procedure": "Male hamsters were fed a cholesterol-enriched diet for 14 days before the daily oral feeding of Compound 162 at 30, 60, and 100 mg/kg, or an equal volume of vehicle for 2-weeks. Serum samples were collected after 2 weeks of treatment and analyzed for TC, TG, and HDL-C. The data shown are mean±SEM of 10 hamsters per group (* p<0.05, ** p<0.01 compared to untreated control group).\nMale Golden Syrian Hamsters were used as an animal model to examine the in vivo effects of Compound 162 in plasma lipid levels. In one experiment, 40 male hamsters under a high fat and high cholesterol diet were divided into 4 groups of 10 hamsters per group. Group 1 was given vehicle only and groups 2-4 were given Compound 162 at 30, 60, and 100 mg/kg/day by an orogastric tube for 2 weeks. At the end of treatment, hamsters were sacrificed and blood and sera were collected to measure lipid levels and several critical parameters of liver function and kidney function."}, "liver PCSK9 mRNA": {"tested_on": "liver PCSK9 mRNA", "assay": "Liver PCSK9 mRNA in treated hamsters, quantitative real-time RT-PCR", "assay_type": "in vivo, hamster", "details": "100 mg/kg, 2 weeks, 10 animals per group", "procedure": "To directly correlate the LDL-C and VLDL-C lowering effects of Compound 162 with its ability to upregulate hepatic LDLR expression and down-regulation of PCSK9, at the end of treatment, animals from vehicle and Compound 162 100 mg/kg treated groups were euthanized and levels of liver LDLR and PCSK9 mRNA were individually assessed by quantitative real-time RT-PCR using hamster specific probes. The results represent mean±SEM of 10 animals per group. The liver expression of LDLR mRNA was increased 1.7-fold over control by Compound 162 treatment (p<0.001). […] Thus, these in vivo data confirmed the in vitro effects of Compound 162 in upregulating LDLR mRNA while inhibiting PCSK9 mRNA expressions."}, "[4]": {"tested_on": "cholesterol 7α-hydroxylase (CYP7A) mRNA", "assay": "Liver cholesterol 7α-hydroxylase (CYP7A) mRNA in treated hamsters, real-time PCR", "assay_type": "in vivo, hamster", "details": "100 mg/kg, 2 weeks, p<0.01", "excerpt": "The conversion of cholesterol to bile acids by the liver and their subsequent excretion in the feces represent a major route for the elimination of sterol from the body. The cholesterol 7α-hydroxylase is the first and rate-limiting enzyme in the bile acid biosynthetic pathway. The measurement of the mRNA expression level of cholesterol 7α-hydroxylase (CYP7A) is widely used as a means to monitor bile acid synthesis in liver. To assess the effect of Compound 162 on liver bile acid synthesis, the mRNA levels of CYP7A were measured in vehicle and liver samples from hamsters treated with 100 mg/kg Compound 162 by real-time PCR as described above."}, "[5]": {"details": "100 mg/kg, 2 weeks, hamsters, FIG. 8"}}, "note": "Structures can show the parent of a compound that is named as a salt. Marks after values point to notes of the source that are not given here."}
{"smiles": "COc1cc2c(cc1OC)C1Cc3ccc(OC)c(OS(=O)(=O)c4cccc(F)c4)c3CN1CC2", "note": "(single isomer, unassigned) [Compound 162, 2,3,10-Trimethoxy-5,6,7,8,13,13a-hexahydroisoquinolino[2,1-b]isoquinolin-9-yl 3-fluorobenzenesulfonate phosphate Salt (Enantiomer having positive optical rotation)]", "values": [{"measurement": "LDLR mRNA expression", "setting": "[1]", "value": "upregulate LDLR mRNA expression"}, {"measurement": "LDLR mRNA expression, comparison of the enantiomers", "setting": "[1]", "value": "more active than Compound 163"}, {"measurement": "LDLR mRNA and protein expression", "setting": "[2]", "value": "significantly enhance"}, {"measurement": "PCSK9 cellular levels", "setting": "[3]", "value": "greatly decreased"}, {"measurement": "increase of HDL-C", "setting": "Hyperlipidemic Hamsters; [5]", "value": 21, "unit": "%"}, {"measurement": "reduction of serum TC", "setting": "Hyperlipidemic Hamsters; [5]", "value": 46, "unit": "%"}, {"measurement": "reduction of serum TG", "setting": "Hyperlipidemic Hamsters; [5]", "value": 63.7, "unit": "%"}, {"measurement": "VLDL-C, LDL-C in pooled serum (HPLC lipoprotein profile)", "setting": "Hyperlipidemic Hamsters; 30, 60, 100 mg/kg/day, hamsters fed the HFHC diet, FIGS. 9A and 9B", "value": "dose-dependently lowered"}, {"measurement": "Blood glucose level", "setting": "Hyperlipidemic Hamsters; hamsters, 2 weeks", "value": "not changed"}, {"measurement": "kidney function", "setting": "Hyperlipidemic Hamsters; hamsters, 2 weeks", "value": "improved"}, {"measurement": "serum levels of AST and ALT versus control group", "setting": "Hyperlipidemic Hamsters; hamsters, 2 weeks", "value": "statistically lower"}, {"measurement": "ALT", "setting": "Hyperlipidemic Hamsters; 30 mkg, 2 weeks", "value": "441 ± 401", "unit": "IU/L"}, {"measurement": "AST", "setting": "Hyperlipidemic Hamsters; 30 mkg, 2 weeks", "value": "202.0 ± 135", "unit": "IU/L"}, {"measurement": "BUN", "setting": "Hyperlipidemic Hamsters; 30 mkg, 2 weeks", "value": "4.5 ± 0.9", "unit": "mmol/L"}, {"measurement": "Bil-T", "setting": "Hyperlipidemic Hamsters; 30 mkg, 2 weeks", "value": "0.6 ± 1.0", "unit": "µmol/L"}, {"measurement": "Creatinine", "setting": "Hyperlipidemic Hamsters; 30 mkg, 2 weeks", "value": "17.8 ± 6.1* umol/L"}, {"measurement": "Glucose", "setting": "Hyperlipidemic Hamsters; 30 mkg, 2 weeks", "value": "3.8 ± 0.8", "unit": "mmol/L"}, {"measurement": "HDL-C", "setting": "Hyperlipidemic Hamsters; 30 mkg, 2 weeks", "value": "3.9 ± 0.5", "unit": "mmol/L"}, {"measurement": "TC", "setting": "Hyperlipidemic Hamsters; 30 mkg, 2 weeks", "value": "19.0 ± 10.1", "unit": "mmol/L"}, {"measurement": "TG", "setting": "Hyperlipidemic Hamsters; 30 mkg, 2 weeks", "value": "9.4 ± 9.2", "unit": "mmol/L"}, {"measurement": "ALT", "setting": "Hyperlipidemic Hamsters; 60 mkg, 2 weeks", "value": "353 ± 250", "unit": "IU/L"}, {"measurement": "AST", "setting": "Hyperlipidemic Hamsters; 60 mkg, 2 weeks", "value": "151.5 ± 61", "unit": "IU/L"}, {"measurement": "BUN", "setting": "Hyperlipidemic Hamsters; 60 mkg, 2 weeks", "value": "5.0 ± 0.7", "unit": "mmol/L"}, {"measurement": "Bil-T", "setting": "Hyperlipidemic Hamsters; 60 mkg, 2 weeks", "value": "0.3 ± 0.3* umol/L"}, {"measurement": "Creatinine", "setting": "Hyperlipidemic Hamsters; 60 mkg, 2 weeks", "value": "15.7 ± 4.2** umol/L"}, {"measurement": "Glucose", "setting": "Hyperlipidemic Hamsters; 60 mkg, 2 weeks", "value": "5.0 ± 1.0", "unit": "mmol/L"}, {"measurement": "HDL-C", "setting": "Hyperlipidemic Hamsters; 60 mkg, 2 weeks", "value": "3.9 ± 0.5", "unit": "mmol/L"}, {"measurement": "TC", "setting": "Hyperlipidemic Hamsters; 60 mkg, 2 weeks", "value": "16.9 ± 8.7* mmol/L"}, {"measurement": "TG", "setting": "Hyperlipidemic Hamsters; 60 mkg, 2 weeks", "value": "7.6 ± 8.1* mmol/L"}, {"measurement": "ALT", "setting": "Hyperlipidemic Hamsters; 100 mkg, 2 weeks", "value": "376 ± 262", "unit": "IU/L"}, {"measurement": "AST", "setting": "Hyperlipidemic Hamsters; 100 mkg, 2 weeks", "value": "150.4 ± 42", "unit": "IU/L"}, {"measurement": "BUN", "setting": "Hyperlipidemic Hamsters; 100 mkg, 2 weeks", "value": "4.8 ± 0.7", "unit": "mmol/L"}, {"measurement": "Bil-T", "setting": "Hyperlipidemic Hamsters; 100 mkg, 2 weeks", "value": "0.2 ± 0.2* umol/L"}, {"measurement": "Creatinine", "setting": "Hyperlipidemic Hamsters; 100 mkg, 2 weeks", "value": "15.3 ± 3.2** umol/L"}, {"measurement": "Glucose", "setting": "Hyperlipidemic Hamsters; 100 mkg, 2 weeks", "value": "5.0 ± 1.3", "unit": "mmol/L"}, {"measurement": "HDL-C", "setting": "Hyperlipidemic Hamsters; 100 mkg, 2 weeks", "value": "4.2 ± 0.5** mmol/L"}, {"measurement": "TC", "setting": "Hyperlipidemic Hamsters; 100 mkg, 2 weeks", "value": "16.4 ± 5.8*** mmol/L"}, {"measurement": "TG", "setting": "Hyperlipidemic Hamsters; 100 mkg, 2 weeks", "value": "6.7 ± 5.2* mmol/L"}, {"measurement": "liver mRNA levels of PCSK9", "setting": "liver PCSK9 mRNA", "value": "57 % of vehicle control"}, {"measurement": "CPY7A mRNA expression in liver versus vehicle control", "setting": "[4]", "value": 2.7, "unit": "fold"}]}
